One assay relates to Puccinia triticina. As to the kind of experiment: Wheat Brown Rust (PUCCRT) fungicidal activity. The format is in vivo. The note with it: for pest or weed control at 100 ppm: High Volume application; for pest or weed control at 121.5 g/ha: Low Volume application, 121.5 g/H. The protocol: (§1) Technical grades of materials were dissolved in acetone, which were then mixed with nine volumes of H2O containing 110 ppm Triton X-100. The fungicide solutions were applied onto wheat seedlings using an automated booth sprayer to run-off. All sprayed plants were allowed to air dry prior to further handling. All fungicides were evaluated using the aforementioned method for their activity vs. all target diseases, unless stated otherwise. Wheat leaf blotch and brown rust activity were also evaluated using track spray applications, in which case the fungicides were formulated as EC formulations, containing 0.1% Trycol 5941 in the spray solutions. Wheat plants (variety Yuma) were grown from seed in a greenhouse in 50% mineral soil/50% soil-less Metro mix until the first leaf was fully emerged, with 7-10 seedlings per pot. These plants were inoculated with an aqueous spore suspension of Zymoseptoria tritici either prior to or after fungicide treatments. After inoculation the plants were kept in 100% relative humidity (one day in a dark dew chamber followed by two to three days in a lighted dew chamber at 20° C.) to permit spores to germinate and infect the leaf. The plants were then transferred to a greenhouse set at 20° C. for disease to develop. When disease symptoms were fully expressed on the 1st leaves of untreated plants, infection levels were assessed on a scale of 0 to 100 percent disease severity. Percent disease control was calculated using the ratio of disease severity on treated plants relative to untreated plants. Example B: Evaluation of Fungicidal Activity: Wheat Brown Rust (Puccinia triticina; Bayer Code PUCCRT) Wheat plants (variety Yuma) were grown from seed in a greenhouse in 50% mineral soil/50% soil-less Metro mix until the first leaf was fully emerged, with 7-10 seedlings per pot. These plants were inoculated with an aqueous spore suspension of Puccinia triticina either prior to or after fungicide treatments. After inoculation the plants were kept in a dark dew room at 22° C. with 100% relative humidity overnight to permit spores to germinate and infect the leaf. The plants were then transferred to a greenhouse set at 24° C. for disease to develop. Fungicide formulation, application and disease assessment followed the procedures as described in the Example A.

For a further assay, the system named is Zymoseptoria tritici. Description: Leaf Blotch of Wheat (SEPTTR) fungicidal activity. Type of assay: in vivo. To be noted: wheat leaf blotch; for pest or weed control at 100 ppm: High Volume application; for pest or weed control at 121.5 g/ha: Low Volume application, 121.5 g/H. The protocol:
as §1, with “Example A: Evaluation of Fungicidal Activity: Leaf Blotch of Wheat (Zymoseptoria tritici; Bayer Code […]) Technical” for “Technical”, “plants.” for “plants. Example B: Evaluation of Fungicidal Activity: Wheat Brown Rust (Puccinia triticina; Bayer Code PUCCRT) Wheat plants (variety Yuma) were grown from seed in a greenhouse in 50% mineral soil/50% soil-less Metro mix until the first leaf was fully emerged, with 7-10 seedlings per pot. These plants were inoculated with an aqueous spore suspension of Puccinia triticina either prior to or after fungicide treatments. After inoculation the plants were kept in a dark dew room at 22° C. with 100% relative humidity overnight to permit spores to germinate and infect the leaf. The plants were then transferred to a greenhouse set at 24° C. for disease to develop. Fungicide formulation, application and disease assessment followed the procedures as described in the Example A.”

Where [1] appears, read: 24 h, 1 day protectant, read-out: PUCCRT disease control, 1DP (1 Day Protectant).
Setting [2] is: 72 h, 3 day curative, read-out: PUCCRT disease control, 3DC (3 Day Curative).
[3] abbreviates: 24 h, 1 day protectant, read-out: SEPTTR disease control, 1DP (1 Day Protectant).
Where [4] appears, read: 72 h, 3 day curative, read-out: SEPTTR disease control, 3DC (3 Day Curative).

The record followed here is patent US20180002319A1, “MACROCYCLIC PICOLINAMIDE COMPOUNDS WITH FUNGICIDAL ACTIVITY” (DOW AGROSCIENCES LLC, priority 2014, published 2018).

Like-named read-outs stand apart in the source and are kept apart here.

As for `COc1ccnc(C(=O)N[C@H]2COCC[C@H](OCc3ccccc3)[C@@H](OCc3ccccc3)[C@H](C)OC2=O)c1O` [Compound 81], the pest or weed control at 100 ppm with Puccinia triticina (setting [1]), in the assay with Puccinia triticina (setting [2]) and in the assay with Zymoseptoria tritici (setting [3]) was greater than 80% each time.
For the compound `CCCO[C@@H]1[C@@H](CC2CCCC2)CCCC[C@H](NC(=O)c2nccc(OC)c2OCOC(C)=O)C(=O)O[C@H]1C` [Compound 57], the pest or weed control at 121.5 g/ha in the assay on Puccinia triticina (setting [1]) is greater than 80%; with Puccinia triticina (setting [2]), less than 80%; with Zymoseptoria tritici (setting [3]), less than 80%.
`COc1ccnc(C(=O)N[C@H]2COCC[C@H](Cc3ccccc3)[C@@H](OCC(C)C)[C@H](C)OC2=O)c1O` [Compound 101]: the pest or weed control at 100 ppm in the assay on Puccinia triticina (setting [1]), in the assay with Puccinia triticina (setting [2]), in the assay with Zymoseptoria tritici (setting [3]) and with Zymoseptoria tritici (setting [4]) was less than 80% in each case.
`CCCOC(=O)O[C@H]1CCCC[C@H](NC(=O)c2nccc(OC)c2OCOC(C)=O)C(=O)O[C@@H](C)[C@@H]1OCC(C)C` [Compound 38]: the pest or weed control at 121.5 g/ha was greater than 80% in the assay on Puccinia triticina (setting [1]), less than 80% in the assay with Puccinia triticina (setting [2]), greater than 80% in the assay on Zymoseptoria tritici (setting [3]) and greater than 80% in the assay with Zymoseptoria tritici (setting [4]).
For `COc1ccnc(C(=O)N[C@H]2COCC[C@H](Cc3ccc(F)cc3)[C@@H](OCC3CC3)[C@H](C)OC2=O)c1OCOC(C)=O` [Compound 74], the pest or weed control at 121.5 g/ha was greater than 80% in the assay with Puccinia triticina (setting [1]), greater than 80% in the assay on Puccinia triticina (setting [2]), greater than 80% in the assay on Zymoseptoria tritici (setting [3]) and less than 80% in the assay with Zymoseptoria tritici (setting [4]).
Turning to `CCCCO[C@H]1CCOC[C@H](NC(=O)c2nccc(OC)c2OCOC(C)=O)C(=O)O[C@@H](C)[C@@H]1OCC(C)C` [Compound 7], the pest or weed control at 100 ppm in the assay with Puccinia triticina (setting [1]) is greater than 80%; in the assay with Puccinia triticina (setting [2]) it was greater than 80%; in the assay on Zymoseptoria tritici (setting [3]), greater than 80%; in the assay on Zymoseptoria tritici (setting [4]) it was less than 80%.
On to `C[C@@H]1OC(=O)[C@@H](NC(=O)c2ncccc2O)CCCC[C@H](CC2CCCC2)[C@H]1Oc1ccccc1` [Compound 120], for which the values for the pest or weed control at 100 ppm in the assay with Puccinia triticina (setting [1]), with Zymoseptoria tritici (setting [3]) and in the assay on Zymoseptoria tritici (setting [4]) were greater than 80%, less than 80% and greater than 80%, respectively.
`COc1ccnc(C(=O)N[C@H]2CCCC[C@H](CC3CCCC3)[C@@H](OC)[C@H](C)OC2=O)c1OCOC(C)=O` [Compound 61]: the pest or weed control at 121.5 g/ha in the assay on Puccinia triticina (setting [1]) is greater than 80%; with Puccinia triticina (setting [2]), greater than 80%; in the assay on Zymoseptoria tritici (setting [3]), less than 80%; with Zymoseptoria tritici (setting [4]), less than 80%.
As to `COc1ccnc(C(=O)N[C@H]2CCOC[C@H](OC)[C@@H](Oc3ccccc3)[C@H](C)OC2=O)c1O` [Compound 113], the pest or weed control at 100 ppm in the assay on Puccinia triticina (setting [1]), in the assay on Puccinia triticina (setting [2]), in the assay with Zymoseptoria tritici (setting [3]) and with Zymoseptoria tritici (setting [4]) was greater than 80% throughout.
Take `COc1ccnc(C(=O)N[C@H]2CCCC[C@H](OC)[C@@H](Oc3ccccc3)[C@H](C)OC2=O)c1OCOC(C)=O` [Compound 11]: the pest or weed control at 100 ppm in the assay with Puccinia triticina (setting [1]), in the assay with Puccinia triticina (setting [2]), in the assay with Zymoseptoria tritici (setting [3]) and in the assay with Zymoseptoria tritici (setting [4]) was greater than 80% each time. Further, the pest or weed control at 121.5 g/ha in the assay on Puccinia triticina (setting [1]), in the assay with Puccinia triticina (setting [2]), in the assay on Zymoseptoria tritici (setting [3]) and in the assay on Zymoseptoria tritici (setting [4]) was greater than 80% in each case.
For `COc1ccnc(C(=O)N[C@H]2COCC[C@H](Cc3ccc(F)cc3)[C@@H](Oc3ccccc3)[C@H](C)OC2=O)c1OC(C)=O` [Compound 71], the pest or weed control at 121.5 g/ha with Puccinia triticina (setting [1]), in the assay with Puccinia triticina (setting [2]), in the assay on Zymoseptoria tritici (setting [3]) and in the assay on Zymoseptoria tritici (setting [4]) was greater than 80% in each case.
Consider `COc1ccnc(C(=O)N[C@H]2CCCC[C@H](CC3CCCC3)[C@@H](Oc3ccccc3)[C@H](C)OC2=O)c1O` [Compound 121], for which the pest or weed control at 100 ppm is less than 80% in the assay with Puccinia triticina (setting [1]), less than 80% with Zymoseptoria tritici (setting [3]) and greater than 80% in the assay with Zymoseptoria tritici (setting [4]).
`COc1ccnc(C(=O)N[C@H]2CCCC[C@H](OC)[C@@H](OC)[C@H](C)OC2=O)c1OCOC(C)=O` [Compound 22]: the results for the pest or weed control at 121.5 g/ha in the assay on Puccinia triticina (setting [1]), in the assay on Puccinia triticina (setting [2]) and with Zymoseptoria tritici (setting [4]) were greater than 80%, greater than 80% and less than 80%, respectively.
With `CC[C@H]1CCOC[C@H](NC(=O)c2nccc(OC)c2O)C(=O)O[C@@H](C)[C@@H]1Oc1ccccc1` [Compound 130], the pest or weed control at 100 ppm with Puccinia triticina (setting [1]) is greater than 80%; in the assay with Puccinia triticina (setting [2]) it was greater than 80%; in the assay on Zymoseptoria tritici (setting [3]), less than 80%; with Zymoseptoria tritici (setting [4]) it was greater than 80%.
`COc1ccnc(C(=O)N[C@H]2CCCC[C@H](Cc3ccccc3)[C@@H](OCC(C)C)[C@H](C)OC2=O)c1OCOC(C)=O` [Compound 24]: the pest or weed control at 121.5 g/ha was greater than 80% with Puccinia triticina (setting [1]), less than 80% in the assay with Puccinia triticina (setting [2]), greater than 80% with Zymoseptoria tritici (setting [3]) and greater than 80% with Zymoseptoria tritici (setting [4]).
For `CCCO[C@H]1COCC[C@H](NC(=O)c2nccc(OC)c2OCOC(C)=O)C(=O)O[C@@H](C)[C@@H]1Oc1ccccc1` [Compound 41], the pest or weed control at 121.5 g/ha in the assay on Puccinia triticina (setting [1]), in the assay on Puccinia triticina (setting [2]), in the assay on Zymoseptoria tritici (setting [3]) and in the assay with Zymoseptoria tritici (setting [4]) was greater than 80% each time.
In the case of `CCOCC(=O)OCOc1c(OC)ccnc1C(=O)N[C@H]1CCCC[C@H](CC2CCCC2)[C@@H](Oc2ccccc2)[C@H](C)OC1=O` [Compound 51, ((2-(((3S,8R,9R,10S)-8-(cyclopentylmethyl)-10-methyl-2-oxo-9-phenoxyoxecan-3-yl)carbamoyl)-4-methoxypyridin-3-yl)oxy)methyl 2-ethoxyacetate], the pest or weed control at 121.5 g/ha is greater than 80% with Puccinia triticina (setting [1]), less than 80% in the assay with Puccinia triticina (setting [2]) and greater than 80% with Zymoseptoria tritici (setting [3]).
Regarding `COc1ccnc(C(=O)N[C@H]2CCCC[C@H](OCC(C)C)[C@@H](OCC(C)C)[C@H](C)OC2=O)c1OCOC(C)=O` [Compound 14], the pest or weed control at 100 ppm with Puccinia triticina (setting [1]), in the assay with Puccinia triticina (setting [2]), in the assay on Zymoseptoria tritici (setting [3]) and in the assay with Zymoseptoria tritici (setting [4]) was greater than 80% in each case. Also, the pest or weed control at 121.5 g/ha in the assay with Puccinia triticina (setting [1]) was greater than 80%; with Puccinia triticina (setting [2]) it was less than 80%; in the assay with Zymoseptoria tritici (setting [3]), greater than 80%; in the assay on Zymoseptoria tritici (setting [4]), less than 80%.
Consider `COc1ccnc(C(=O)N[C@H]2CCOC[C@H](OCC(C)C)[C@@H](OCC(C)C)[C@H](C)OC2=O)c1OCOC(C)=O` [Compound 43], for which the pest or weed control at 121.5 g/ha is greater than 80% in the assay with Puccinia triticina (setting [1]) and less than 80% in the assay on Puccinia triticina (setting [2]).
The like results for `COc1ccnc(C(=O)N[C@H]2CCCC[C@H](OC3CCCC3)[C@@H](OC)[C@H](C)OC2=O)c1OCOC(C)=O` [Compound 35] were, in that order, greater than 80% and less than 80%.
In the case of `COc1ccnc(C(=O)N[C@H]2CCCC[C@H](OC)[C@@H](OC)[C@H](C)OC2=O)c1O` [Compound 99], the pest or weed control at 100 ppm with Puccinia triticina (setting [1]) was greater than 80%.
